Measured values as given in PubChem BioAssay (NCI).
Several values for one entry are separate records, joined by “and”; a condition that tells them apart may be missing. Identical values can stand only once.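 A five-concentration, 48-hour dose response in 96-well plates underlies each endpoint, interpolated linearly between surrounding concentrations. Abbreviation: GI50, concentration required for 50% inhibition of growth. TGI is the concentration that stops growth completely.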

Tests used:
Experiment in all cases: inhibition of tumour cell growth, NCI panel, 48 h
[1] = test system: CCRF-CEM leukemia
[2] = test system: HCC-2998 colon
[3] = test system: NCI-H23 lung
[4] = test system: SNB-19 CNS
[5] = test system: U251 CNS
[6] = test system: MOLT-4 leukemia
[7] = test system: SR leukemia
[8] = test system: T-47D breast

Compound	TGI [1]	TGI [2]	TGI [3]	TGI [4]	TGI [5]	GI50 [1]	GI50 [2]	GI50 [6]	TGI [6]	GI50 [3]	GI50 [4]	GI50 [7]	TGI [7]	GI50 [8]	TGI [8]	GI50 [5]
Oc1c(Cl)c(Cl)c(O)c2c1CCCC2	5.05 µM	30.6 µM	40.8 µM	30.5 µM	42.7 µM	–	–	–	–	–	–	–	–	–	–	–
COc1ccc(C2=C(c3ccc(OC)c(OC)c3)C(=O)N3CCCC3C2)cc1 (stereo not given)	> 100 µM	> 100 µM	> 100 µM	> 100 µM	> 100 µM	8.03 µM	53.6 µM	2.72 µM	19.6 µM	> 90.4 µM	63.8 µM	3.02 µM	12.8 µM	42.3 µM	> 100 µM	7.47 µM
COc1cc([N+](=O)[O-])c(OC)cc1-c1nc2sccn2c1/C=N/N=C(N)N	–	–	71.9 µM	> 100 µM	15 µM	–	–	> 100 µM	> 100 µM	14.8 µM	8.52 µM	–	–	22.2 µM	> 100 µM	3.66 µM
O=C(Nc1ccc(Oc2cccc(F)c2)c(Cl)c1)c1cnccn1	> 50 µM	> 50 µM	> 50 µM	> 50 µM	> 50 µM	1.3 µM	6.04 µM	1.85 µM	> 50 µM	3 µM	2.74 µM	0.242 µM	> 50 µM	1.33 µM	> 50 µM	1.51 µM
COc1ccc(N(/C=C/C(=O)C(F)(F)F)CC(=O)c2ccc(F)cc2)cc1	95.1 µM	38.9 µM	84.9 µM	> 100 µM	28.3 µM	19.7 µM	21.4 µM	16.1 µM	43.6 µM	30.1 µM	36.6 µM	19.1 µM	44.3 µM	32.1 µM	> 100 µM	13.1 µM
CCOC(=O)C1CCCCN1C(=O)c1ccc(Nc2cnc3cc(C(F)(F)F)ccc3n2)cc1 (stereo not given)	–	–	28.6 µM	64.1 µM	32.2 µM	–	–	3.93 µM	> 100 µM	14.7 µM	21.3 µM	3.8 µM	19.1 µM	6.91 µM	> 100 µM	11.3 µM
Cc1nn(-c2ccc([N+](=O)[O-])cc2)c2ncnc(N/N=C/c3ccccc3O)c12	> 100 µM	–	3.76 µM	8.65 µM	2.44 µM	0.222 µM	–	0.321 µM	> 100 µM	0.864 µM	0.507 µM	0.166 µM	–	0.542 µM	4.95 µM	0.332 µM
N#Cc1nc2c(S(=O)(=O)c3ccc(Cl)cc3)c(N)n(CCCN3CCOCC3)c2nc1C#N	6.28 µM	33.7 µM	42.7 µM	> 100 µM	26.7 µM	2.19 µM	18 µM	2.63 µM	9.64 µM	7.41 µM	28.2 µM	3.58 µM	31 µM	2.95 µM	16.6 µM	10.8 µM
[O-]c1ccccc1/C=N/C(/N=C/c1ccccc1[O-])c1ccccc1O.[O-]c1ccccc1/C=N/C(/N=C/c1ccccc1[O-])c1ccccc1O.[Zr+4]	–	> 100 µM	–	> 100 µM	> 100 µM	–	34.7 µM	25.2 µM	> 100 µM	–	13.1 µM	–	–	28.3 µM	> 100 µM	36.7 µM
C[C@]12CC[C@@H]3c4ccc(O)cc4CC[C@H]3[C@@H]1Cc1cnc(N)nc12	40 µM	26.1 µM	41 µM	43 µM	41.6 µM	15.3 µM	9.36 µM	13 µM	41.1 µM	18.1 µM	14.4 µM	7.06 µM	39.2 µM	–	–	17.9 µM
Cc1ccc(-c2csc(NC(=O)N3CCN(c4cc5c(cc4F)c(=O)c(C(=O)O)cn5C4CC4)CC3)n2)cc1	> 100 µM	> 100 µM	> 100 µM	> 100 µM	14.8 µM	0.451 µM	0.699 µM	–	–	0.391 µM	0.398 µM	–	–	–	–	0.392 µM
O=C1C(SCCO)=C(SCCO)C(=O)N1c1ccc(-c2ccccc2)cc1	6.87 µM	9.87 µM	13.3 µM	43.1 µM	15.7 µM	2.34 µM	3.65 µM	18.9 µM	73.1 µM	4.38 µM	19.8 µM	0.182 µM	> 100 µM	1.71 µM	7.43 µM	5.21 µM
Nc1ncnc2c1c(-c1ccc(Oc3ccccc3)cc1)nn2C[C@@H]1SSC[C@H]1O	> 100 µM	23.5 µM	8.17 µM	13.3 µM	8.21 µM	0.278 µM	4.34 µM	–	–	0.916 µM	2.88 µM	0.163 µM	11.8 µM	1.09 µM	10.3 µM	2.48 µM
COC(=O)C1=C(C)NC(C)=C(C(=O)OCC(C)C)C1c1ccccc1[N+](=O)[O-] (stereo not given)	11.3 µM	22.4 µM	16.5 µM	64.3 µM	17.6 µM	2.45 µM	6.18 µM	3.31 µM	18.9 µM	3.47 µM	8.2 µM	2.53 µM	11.3 µM	3.9 µM	16.4 µM	4.27 µM
COc1ccc(C(=O)/C=C/c2cccc(Nc3ccnc4cc(Cl)ccc34)c2)cc1	> 100 µM	–	> 100 µM	> 100 µM	4.82 µM	2.88 µM	–	2.9 µM	> 100 µM	1.49 µM	2.26 µM	0.491 µM	3.77 µM	0.655 µM	4.64 µM	1.74 µM
CN(C)C(=O)c1cnc2oc3ccc(O)cc3c2c1-c1ccccc1	–	–	> 25 µM	–	> 25 µM	–	–	> 25 µM	> 25 µM	11.5 µM	–	3.78 µM	> 25 µM	–	–	> 25 µM
COc1ccc(CC(=O)c2ccc(O)cc2O)cc1	> 100 µM	> 100 µM	> 100 µM	> 100 µM	> 100 µM	49.4 µM	> 100 µM	57.4 µM	> 100 µM	63.5 µM	> 100 µM	> 100 µM	> 100 µM	56.7 µM	> 100 µM	> 100 µM
Cc1nn(-c2ccc(Cl)cc2)c2nc3c(nc12)C(=O)C(=O)c1ccccc1-3	–	3.79 µM	3.88 µM	8.17 µM	10.1 µM	–	1.74 µM	> 100 µM	> 100 µM	1.71 µM	2.48 µM	7.28 µM	> 100 µM	12.1 µM	29.9 µM	3.21 µM

Compound	TGI [1]	TGI [2]	TGI [3]	TGI [4]	TGI [5]	GI50 [1]	GI50 [2]	GI50 [6]	TGI [6]	GI50 [3]	GI50 [4]	GI50 [7]	TGI [7]	GI50 [8]	TGI [8]	GI50 [5]
COc1cc(/C=C/C(=O)c2ccc(F)cc2)ccc1OCCCN1CCN(CC(=O)Nc2ccc(Cl)cc2C(=O)c2ccccc2Cl)CC1	9.3 µM	40.1 µM	> 100 µM	49.2 µM	17.3 µM	2.65 µM	16.6 µM	3.23 µM	> 100 µM	17.4 µM	18.9 µM	–	–	21.4 µM	> 100 µM	5.01 µM
Cc1nn(C)c(COc2ccc(N3CCN(S(=O)(=O)N(C)C)CC3)cc2)c1-c1cccc2c(CCCOc3cccc4ccccc34)c(C(=O)O)n(CCN3CCOCC3)c12	> 100 µM	9.34 µM	14.7 µM	23.4 µM	11.5 µM	4.19 µM	2.81 µM	3.52 µM	16.5 µM	3.54 µM	3.63 µM	3.13 µM	11 µM	2.4 µM	9.38 µM	3.13 µM
O=S(=O)(c1cccc2c(I)cccc12)N1CCCNCC1	32.2 µM	35.1 µM	34 µM	42.8 µM	39.1 µM	14.1 µM	17.4 µM	10.9 µM	27.6 µM	17 µM	20.9 µM	–	–	25.4 µM	64.9 µM	19.6 µM
CC1=C(C(=O)N(C)c2ccc(Cl)c(C(=O)OC(C)C)c2)SCCO1	> 100 µM	> 100 µM	> 100 µM	> 100 µM	> 100 µM	–	–	–	> 100 µM	–	–	–	–	–	> 100 µM	–
C#CCNCCN1C(=O)c2ccc3c4c(ccc(c24)C1=O)C(=O)N(CCNCC#C)C3=O	25 µM	10 µM	15.6 µM	10.6 µM	10.9 µM	5.19 µM	2.49 µM	3.54 µM	16.7 µM	3.56 µM	3.56 µM	4.53 µM	29.8 µM	4.16 µM	14.8 µM	3.3 µM
CN1CCc2[nH]nc(-c3n[nH]c4c3CN(C)CC4)c2C1	> 100 µM	> 100 µM	> 100 µM	> 100 µM	> 100 µM	–	–	–	> 100 µM	–	–	–	> 100 µM	–	> 100 µM	–
CC(C)CCNCC(O)Cn1c2ccccc2c2ccccc21 (stereo not given)	31.7 µM	4.22 µM	31.9 µM	28.8 µM	23.5 µM	12.8 µM	2.06 µM	10.2 µM	25.9 µM	16.4 µM	13.8 µM	2.45 µM	6.38 µM	3.99 µM	14.6 µM	10.5 µM
O=[N+]([O-])c1cc(Cl)cnc1Br	19.6 µM	3.05 µM	24.2 µM	26.8 µM	5.32 µM	–	–	–	4.52 µM	–	–	–	–	–	> 100 µM	–
COc1ccc(C2=CC(c3ccc(OC)cc3Br)N3C=CSC3=N2)cc1 (stereo not given)	> 100 µM	17.8 µM	42.8 µM	25.3 µM	14 µM	2.69 µM	5.38 µM	2.93 µM	9.64 µM	15.2 µM	9.79 µM	1.73 µM	7.1 µM	9.21 µM	40.4 µM	3.23 µM
O=[N+]([O-])c1ccc(N2CCC(CCCC3CCN(c4ccc([N+](=O)[O-])cc4[N+](=O)[O-])CC3)CC2)c([N+](=O)[O-])c1	35.9 µM	–	54.3 µM	34.8 µM	29.2 µM	–	–	–	53.2 µM	–	–	–	74.7 µM	–	29.2 µM	–
COc1ccc(Cl)c(Nc2nc3ccccc3nc2NS(=O)(=O)c2cccc(NC(=O)C(C)(C)N)c2)c1	31.9 µM and > 10 µM	26.6 µM and > 10 µM	29.1 µM and > 10 µM	25.9 µM and > 10 µM	24.1 µM and > 10 µM	12.3 µM and > 10 µM	13 µM and 5.73 µM	3.5 µM and 3.66 µM	17.4 µM and > 10 µM	13.2 µM and > 10 µM	12.4 µM and > 10 µM	10.2 µM and > 10 µM	28.1 µM and > 10 µM	0.443 µM and 0.638 µM	5.05 µM and 5.77 µM	11 µM and > 10 µM
CC1=C(CCC(C)NCc2ccc(OCCCN3CCCCC3)cc2)C(C)(C)CCC1 (stereo not given)	4.7 µM	0.612 µM	3.82 µM	4.26 µM	3.28 µM	1.54 µM	0.232 µM	–	–	1.73 µM	2.01 µM	0.221 µM	0.608 µM	1.63 µM	3.65 µM	1.57 µM
OCCn1cnc2c(SCc3ccccc3)ncnc21	> 100 µM	> 100 µM	> 100 µM	> 100 µM	> 100 µM	–	–	–	–	–	–	–	> 100 µM	–	> 100 µM	–
COc1cnc2c(c1)C(=O)c1c-2n(CCCNC2=NCCS2)c(=O)c2cc(Cl)ccc12	–	2.68 µM	2.11 µM	–	1.82 µM	–	1.36 µM	0.0454 µM	1.71 µM	0.3 µM	–	–	–	–	–	0.0546 µM
COC(=O)c1cc2ccccc2c2c3c(ccc12)OCO3	–	> 1000 µM	> 1000 µM	990 µM	924 µM	–	562 µM	794 µM	> 1000 µM	161 µM	73 µM	167 µM	> 1000 µM	44.2 µM	> 1000 µM	79.2 µM
Cn1cc(-c2csc(-c3cn(CCCN4CCCCC4)c4ccccc34)n2)c2cccnc21	–	3.23 µM	3.62 µM	3.34 µM	3.38 µM	–	1.68 µM	–	–	1.82 µM	1.83 µM	–	–	17.4 µM	51.3 µM	1.87 µM
O=[N+]([O-])c1ccc(N=Nc2ccc(O)c3ccccc23)cc1	35.7 µM	> 100 µM	6.88 µM	> 100 µM	25.8 µM	4.24 µM	10.3 µM	5.22 µM	> 100 µM	1.79 µM	4.76 µM	2.99 µM	23.4 µM	–	–	3.12 µM
